Here are results for 36 compounds from patent US9204653B2, “5-fluoro pyrimidine derivatives” (DOW AGROSCIENCES LLC, priority 2008, dated 2015).

This assay relates to Mycosphaerella graminicola; Anamorph: Septoria tritici; Bayer Code SEPTTR. As to the kind of experiment: Leaf blotch of wheat, foliar fungicide treatment, one day protectant (1DP) or three day curative (3DC). The class given is in vivo, Septoria tritici on wheat plants (variety Yuma). To be noted: Zymoseptoria tritici, rating of percent disease control.
Where [1] appears, read: 24 h, one day protectant (1DP), read-out: SETTTR 1DP 25 ppm.
Where [2] appears, read: 24 h, one day protectant (1DP), read-out: SEPTTR 1DP 100 ppm.
[3] abbreviates: 72 h, three day curative (3DC), read-out: SEPTTR 3DC 25 ppm.
[4] abbreviates: 72 h, three day curative (3DC), read-out: SEPTTR 3DC 100 ppm.

Like-named read-outs stand apart in the source and are kept apart here.

Turning to `Fc1ccccc1CNC(=S)Nc1nc(OCc2ccccc2)ncc1F` [Compound 438], the pest or weed control at 25 ppm runs as follows: under setting [1], 51 to 75%; under setting [3], 0 to 25%. Besides, the pest or weed control at 100 ppm under setting [2] fell in the range of 76 to 100% and the pest or weed control at 100 ppm under setting [4] fell in the range of 0 to 25%.

Consider `Cc1cc(C)cc(COc2ncc(F)c(NSc3ccccc3[N+](=O)[O-])n2)c1` [Compound 440], for which the pest or weed control at 25 ppm lay in the range of 0 to 25% under setting [1] and 26 to 50% under setting [3]. Moreover, the pest or weed control at 100 ppm under setting [2] fell in the range of 0 to 25% and the pest or weed control at 100 ppm under setting [4] fell in the range of 0 to 25%.

Take `CC(C)Oc1cccc(COc2ncc(F)c(N)n2)c1` [Compound 441]: the pest or weed control at 25 ppm by setting is: under setting [1], 76 to 100%; under setting [3], 76 to 100%. Moreover, the pest or weed control at 100 ppm by setting is: under setting [2], 76 to 100%; under setting [4], 76 to 100%.

With `Nc1nc(OCc2snc(Cl)c2Cl)ncc1F` [Compound 442], the pest or weed control at 25 ppm reads like this: under setting [1], 76 to 100%; under setting [3], 76 to 100%. Besides, the pest or weed control at 100 ppm was in the range of 76 to 100% under setting [2] and 76 to 100% under setting [4].

Consider `Cc1ccc(COc2ncc(F)c(NSc3ccccc3[N+](=O)[O-])n2)cc1` [Compound 443], for which the pest or weed control at 25 ppm under setting [1] lay within 76 to 100% and the pest or weed control at 25 ppm under setting [3] was in the range of 26 to 50%. The pest or weed control at 100 ppm runs as follows: under setting [2], 76 to 100%; under setting [4], 26 to 50%.

Consider `COc1ccccc1OC(=O)Oc1ncc(F)c(/N=C/N(C)C)n1` [Compound 444], for which the pest or weed control at 25 ppm under setting [1] lay in the range of 76 to 100% and the pest or weed control at 25 ppm under setting [3] was 76 to 100%. In addition, the pest or weed control at 100 ppm fell in the range of 76 to 100% under setting [2] and 76 to 100% under setting [4].

On to `CCCNC(=O)N(C(=O)NCCC)c1nc(OCc2cccc(F)c2)ncc1F` [Compound 445], for which the pest or weed control at 25 ppm by setting is: under setting [1], 51 to 75%; under setting [3], 76 to 100%. Further, the pest or weed control at 100 ppm was 76 to 100% under setting [2] and 76 to 100% under setting [4].

Consider `COc1cc(COc2ncc(F)c(N)n2)c(OC)cc1C` [Compound 450], for which the pest or weed control at 25 ppm lay in the range of 76 to 100% under setting [1] and 76 to 100% under setting [3]. Also, the pest or weed control at 100 ppm is, setting by setting: under setting [2], 76 to 100%; under setting [4], 51 to 75%.

Regarding `N#CNc1nc(OCc2ccc(F)cc2)ncc1F` [Compound 451], the pest or weed control at 25 ppm under setting [1] was 0 to 25% and the pest or weed control at 25 ppm under setting [3] is 0 to 25%. Also, the pest or weed control at 100 ppm was 0 to 25% under setting [2] and 0 to 25% under setting [4].

Take `O=C(Cc1ccccc1)Nc1nc(OCc2cccs2)ncc1F` [Compound 453]: the pest or weed control at 25 ppm fell in the range of 76 to 100% under setting [1] and 51 to 75% under setting [3]. Besides, the pest or weed control at 100 ppm lay in the range of 76 to 100% under setting [2] and 76 to 100% under setting [4].

Regarding `ON(c1nc(OCc2ccc(F)cc2)ncc1F)C1CCCCC1` [Compound 454], the pest or weed control at 25 ppm is, setting by setting: under setting [1], 0 to 25%; under setting [3], 26 to 50%. Moreover, the pest or weed control at 100 ppm under setting [2] was 76 to 100% and the pest or weed control at 100 ppm under setting [4] was in the range of 0 to 25%.

Turning to `Nc1nc(OCCc2ccc(Cl)cc2)ncc1F` [Compound 455], the pest or weed control at 25 ppm runs as follows: under setting [1], 51 to 75%; under setting [3], 26 to 50%. The pest or weed control at 100 ppm was 76 to 100% under setting [2] and 76 to 100% under setting [4].

With `NN(Cc1ccccc1Cl)c1nc(OCc2ccc(F)cc2)ncc1F` [Compound 456], the pest or weed control at 25 ppm reads like this: under setting [1], 51 to 75%; under setting [3], 0 to 25%. For the same compound, the pest or weed control at 100 ppm runs as follows: under setting [2], 76 to 100%; under setting [4], 76 to 100%.

For `COCCCOc1ncc(F)c(/N=C/N(C)C)n1` [Compound 457], the pest or weed control at 25 ppm reads like this: under setting [1], 51 to 75%; under setting [3], 51 to 75%. For the same compound, the pest or weed control at 100 ppm runs as follows: under setting [2], 76 to 100%; under setting [4], 76 to 100%.

With `Fc1cccc(COc2ncc(F)c(NCOCc3ccccc3)n2)c1` [Compound 458], the pest or weed control at 25 ppm fell in the range of 0 to 25% under setting [1] and 0 to 25% under setting [3]. Besides, the pest or weed control at 100 ppm reads like this: under setting [2], 51 to 75%; under setting [4], 0 to 25%.

Consider `COCCOC(=O)Nc1nc(OCc2cccc(OC)c2)ncc1F` [Compound 459], for which the pest or weed control at 25 ppm reads like this: under setting [1], 51 to 75%; under setting [3], 76 to 100%. Also, the pest or weed control at 100 ppm reads like this: under setting [2], 76 to 100%; under setting [4], 76 to 100%.

On to `Nc1nc(OCc2cccc(OC(F)(F)F)c2)ncc1F` [Compound 460], for which the pest or weed control at 25 ppm is, setting by setting: under setting [1], 76 to 100%; under setting [3], 76 to 100%. In addition, the pest or weed control at 100 ppm under setting [2] was in the range of 76 to 100% and the pest or weed control at 100 ppm under setting [4] is 76 to 100%.

In the case of `COc1ccc(CCCOc2ncc(F)c(N)n2)cc1` [Compound 462], the pest or weed control at 25 ppm fell in the range of 51 to 75% under setting [1] and 51 to 75% under setting [3]. In addition, the pest or weed control at 100 ppm reads like this: under setting [2], 76 to 100%; under setting [4], 26 to 50%.

In the case of `COc1cccc(COc2ncc(F)c(NOC(C)C)n2)c1` [Compound 463], the pest or weed control at 25 ppm runs as follows: under setting [1], 0 to 25%; under setting [3], 26 to 50%. The pest or weed control at 100 ppm was in the range of 51 to 75% under setting [2] and 51 to 75% under setting [4].

In the case of `COc1ccc(COc2ncc(F)c(NC(=O)NCc3ccccc3F)n2)cc1F` [Compound 464], the pest or weed control at 25 ppm fell in the range of 0 to 25% under setting [1] and 0 to 25% under setting [3]. In addition, the pest or weed control at 100 ppm is, setting by setting: under setting [2], 0 to 25%; under setting [4], 26 to 50%.

For `Nc1nc(OCc2ccc3ccccc3n2)ncc1F` [Compound 465], the pest or weed control at 25 ppm fell in the range of 76 to 100% under setting [1] and 76 to 100% under setting [3]. Moreover, the pest or weed control at 100 ppm lay in the range of 76 to 100% under setting [2] and 76 to 100% under setting [4].

`CC(C)OC(=O)Oc1ncc(F)c(/N=C/N(C)C)n1` [Compound 467]: the pest or weed control at 25 ppm under setting [1] fell in the range of 76 to 100% and the pest or weed control at 25 ppm under setting [3] fell in the range of 76 to 100%. For the same compound, the pest or weed control at 100 ppm fell in the range of 76 to 100% under setting [2] and 76 to 100% under setting [4].

Regarding `Nc1nc(OCc2cccc(Cl)c2)ncc1F` [Compound 468], the pest or weed control at 25 ppm was in the range of 76 to 100% under setting [1] and 76 to 100% under setting [3]. Further, the pest or weed control at 100 ppm under setting [2] was 76 to 100% and the pest or weed control at 100 ppm under setting [4] lay in the range of 76 to 100%.

For `Cc1cc(C)nc(NNc2nc(OCc3ccccc3)ncc2F)n1` [Compound 470], the pest or weed control at 25 ppm is, setting by setting: under setting [1], 0 to 25%; under setting [3], 26 to 50%. The pest or weed control at 100 ppm under setting [2] was in the range of 0 to 25% and the pest or weed control at 100 ppm under setting [4] lay in the range of 26 to 50%.

Turning to `Nc1nc(OCc2cn3ccsc3n2)ncc1F` [Compound 472], the pest or weed control at 25 ppm was 76 to 100% under setting [1] and 76 to 100% under setting [3]. In addition, the pest or weed control at 100 ppm lay within 76 to 100% under setting [2] and 76 to 100% under setting [4].

As for `NNc1nc(OCc2ccc(F)cc2)ncc1F` [Compound 473], the pest or weed control at 25 ppm by setting is: under setting [1], 26 to 50%; under setting [3], 26 to 50%. Moreover, the pest or weed control at 100 ppm reads like this: under setting [2], 76 to 100%; under setting [4], 76 to 100%.

Consider `CC(Oc1ncc(F)c(N)n1)c1ccc(Oc2ccccc2)cc1` (stereo not drawn) [Compound 474], for which the pest or weed control at 25 ppm under setting [1] was in the range of 76 to 100% and the pest or weed control at 25 ppm under setting [3] fell in the range of 76 to 100%. Further, the pest or weed control at 100 ppm is, setting by setting: under setting [2], 76 to 100%; under setting [4], 76 to 100%.

Regarding `CCCNC(=S)Nc1nc(OCc2ccccc2OC)ncc1F` [Compound 475], the pest or weed control at 25 ppm by setting is: under setting [1], 51 to 75%; under setting [3], 51 to 75%. In addition, the pest or weed control at 100 ppm lay within 76 to 100% under setting [2] and 76 to 100% under setting [4].

Regarding `COc1ccc(COc2ncc(F)c(N)n2)cc1C(F)(F)F` [Compound 476], the pest or weed control at 25 ppm is, setting by setting: under setting [1], 76 to 100%; under setting [3], 76 to 100%. The pest or weed control at 100 ppm fell in the range of 76 to 100% under setting [2] and 76 to 100% under setting [4].

For the compound `O=C(NCc1ccccc1F)Nc1nc(OCc2ccc(F)cc2)ncc1F` [Compound 477], the pest or weed control at 25 ppm runs as follows: under setting [1], 0 to 25%; under setting [3], 0 to 25%. In addition, the pest or weed control at 100 ppm by setting is: under setting [2], 0 to 25%; under setting [4], 51 to 75%.

As for `O=C(Nc1nc(OCc2cccc(F)c2)ncc1F)OCc1ccccc1` [Compound 478], the pest or weed control at 25 ppm is 51 to 75% under setting [1] and 76 to 100% under setting [3]. Further, the pest or weed control at 100 ppm under setting [2] is 76 to 100% and the pest or weed control at 100 ppm under setting [4] was 76 to 100%.

`O=[N+]([O-])c1ccccc1SNc1nc(OCc2c(F)cc(Br)cc2F)ncc1F` [Compound 479]: the pest or weed control at 25 ppm under setting [1] is 76 to 100% and the pest or weed control at 25 ppm under setting [3] was in the range of 51 to 75%. Further, the pest or weed control at 100 ppm is 76 to 100% under setting [2] and 51 to 75% under setting [4].

Regarding `CNc1nc(OCc2cc(OC)c(OC)c(OC)c2)ncc1F` [Compound 480], the pest or weed control at 25 ppm lay within 0 to 25% under setting [1] and 0 to 25% under setting [3]. Besides, the pest or weed control at 100 ppm lay in the range of 0 to 25% under setting [2] and 0 to 25% under setting [4].

Take `NN(c1ccccc1)c1nc(OCc2ccccc2)ncc1F` [Compound 482]: the pest or weed control at 25 ppm is 0 to 25% under setting [1] and 0 to 25% under setting [3]. The pest or weed control at 100 ppm under setting [2] lay within 0 to 25% and the pest or weed control at 100 ppm under setting [4] fell in the range of 26 to 50%.

As to `CN(C)/C=N/c1nc(OC(=O)c2cccc(Cl)c2)ncc1F` [Compound 484], the pest or weed control at 25 ppm lay in the range of 76 to 100% under setting [1] and 76 to 100% under setting [3]. The pest or weed control at 100 ppm reads like this: under setting [2], 76 to 100%; under setting [4], 76 to 100%.

For `O=C(Nc1ccccc1)Nc1nc(OCc2ccc(F)cc2)ncc1F` [Compound 485], the pest or weed control at 25 ppm under setting [1] lay in the range of 0 to 25% and the pest or weed control at 25 ppm under setting [3] was in the range of 0 to 25%. Further, the pest or weed control at 100 ppm by setting is: under setting [2], 0 to 25%; under setting [4], 0 to 25%.
